Test results reported in patent US20120035187A1 (priority 2009, published 2012).

Columns and labels:
[1] = test system: hamsters with cerebellar ataxia; experiment: Slant tolerance test in hamsters with cerebellar ataxia; assay type: in vivo, hamster; details: for endurable-slant-slope-angle (degree): cerebellar ataxia hamsters
Source text: Since NK-4 was confirmed to have a neurodegenerative inhibitory action in Experiment 1, hamsters with cerebellar ataxia (cerebellar ataxia is called “cerebellar A” and hamsters with cerebellar ataxia are called “hamsters with cerebellar A”, hereinafter) as a suitable model for human neurodegenerative diseases (e.g., spinal cerebellar degeneration) were subjected to examine the influence of NK-4 administration on their behaviors and brain tissues. Twenty-five hamsters with natural mutation (Nna1 inhibition), which are known to lose Purkinje's cells after three-weeks of age and then induce a spontaneous onset of kinetic motor ataxia after seven-weeks of age (see Akita K. et al., “J. Neurogenetics”, Vol. 21, pp. 19-29, 2007), had been fed at Hayashibara Biochemical Laboratories., Inc., Okayama, Japan, were randomly allocated to the test groups 1 to 5, five heads in each group, as shown in Table 2. Prior to the onset of cerebellar A (at three-weeks of age), PBS was started to administer to the hamsters in the test group 1 at a dose of 10 ml/kg/day. Prior to the onset of cerebellar A (at three-weeks of age), NK-4 was started to be administered to the hamsters in the test groups 2 to 4 at a daily dose of 20 μg/kg, 100 μg/kg or 500 μg/kg. “IGF-1, human, a product name of insulin-like growth factor, commercialized by Assaypro LLC, MO, USA. These administered ingredients were intraperitoneally administered daily to hamsters once a day up to 10-weeks of age. The degree of symptom of cerebellar A and the improvement effect on the symptom by NK-4 were evaluated with an index of improvement in motor coordination of hamsters by conducting once a week the later described rotarod test and the slant tolerance test. At the age of 10-weeks, the hamsters were subjected to counting the falling down frequency and extracted their brains, which were then histologically evaluated. In parallel, the concentration of glutamic acid in the bloods and cerebrospinal fluids (CSF) of the hamsters was assayed. As a test group 6, five normal hamsters, with the same age as the hamsters with cerebellar A used in the test groups 1 to 5, were provided and tested similarly as the hamsters with cerebellar A in such a manner of intraperitoneally administering PBS to them at a dose of 10 ml/kg/day once a day up to 10-weeks of age.
Hamsters were placed on a slope-angle-variable-board while keeping their heads upward, followed by determining the angle for allowing the hamsters to keep staying thereupon for five seconds for use as an endurable-slant-slope-angle test (see Rivlin et al., “J. Neurosurg.”, Vol. 47, pp. 577-581, […]). The initial slope angle was set to 25 degrees and increased by 5 degrees step by step. When a tested hamster in a static condition fell down within five seconds, the slope angle was decreased by one degree step by step, followed by judging the angle that allows the hamster to keep static staying for five seconds, measuring the tolerable slant-slope-angle, and averaging the data for five heads in each group.
Similarly as in Experiment 2, 130 hamsters with cerebellar ataxia, born within the same week and 3-weeks of age, were randomly divided into 13 groups, consisting of 10 hamsters, respectively. […] The hamsters (10 heads) in the remaining one group were intraperitoneally administered from their age of 3- to 10-weeks with a sterilized 10% maltose solution (pyrogen-free) in an amount of 0.5 ml/hamster (control) once a day for 56 days At the next day after the end of the administration, body weight of each hamster was weighed, followed by performing rotarod test, slope endurance test, and counting of falling down frequency. The types of compounds applied to each group and the results are in Table 25.

[2] = test system: PC12-HS cells; experiment: Evaluation A: neurocyte (cell)-growth-promoting action, ALAMAR BLUE; assay type: cell-based, rat; details: for Cell survival percentage (%): cell-growth promotion
[3] = test system: PC12-HS cells; experiment: Evaluation B: neurite-outgrowth action in presence of NGF; assay type: cell-based, rat
[4] = test system: primary neuron (neuron, astrocyte and microglia) prepared from brain cortex of a rat fetus; experiment: Amyloid β fragment disorder in primary neuron; assay type: cell-based; details: concrete data not shown
Source text: Though concrete data is not shown, using primary neuron (neuron, astrocyte and microglia) prepared from brain cortex of a rat fetus in place of PC12-HS cells, the influence of NK-4, NK-26, NK-234, NK-19 and NK-150 on amyloid β fragment disorder and hydrogen peroxide disorder was investigated.

## CCN1C=CC(=CC=C(C=Cc2cc[n+](CC)c3ccccc23)c2cc[n+](CC)c3ccccc23)c2ccccc21.[I-].[I-] [NK-4]
[1]; 20 μg/kg body weight i.p. once a day, 4-Weeks
  endurable-slant-slope-angle (degree): 42.6 ± 0.5 degree
[1]; 20 μg/kg body weight i.p. once a day, 5-Weeks
  endurable-slant-slope-angle (degree): 47.2 ± 0.4 degree
[1]; 20 μg/kg body weight i.p. once a day, 6-Weeks
  endurable-slant-slope-angle (degree): 44.6 ± 0.5 degree
[1]; 20 μg/kg body weight i.p. once a day, 7-Weeks
  endurable-slant-slope-angle (degree): 47.0 ± 0.3 degree
[1]; 20 μg/kg body weight i.p. once a day, 8-Weeks
  endurable-slant-slope-angle (degree): 42.8 ± 0.5 degree
[1]; 20 μg/kg body weight i.p. once a day, 9-Weeks
  endurable-slant-slope-angle (degree): 44.4 ± 0.5 degree
[1]; 20 μg/kg body weight i.p. once a day, 10-Weeks
  endurable-slant-slope-angle (degree): 45.8 ± 0.6 degree
[1]; 100 μg/kg body weight i.p. once a day, 4-Weeks
  endurable-slant-slope-angle (degree): 41.6 ± 0.4 degree
[1]; 100 μg/kg body weight i.p. once a day, 5-Weeks
  endurable-slant-slope-angle (degree): 45.6 ± 0.2 degree
[1]; 100 μg/kg body weight i.p. once a day, 6-Weeks
  endurable-slant-slope-angle (degree): 44.4 ± 0.3 degree
[1]; 100 μg/kg body weight i.p. once a day, 7-Weeks
  endurable-slant-slope-angle (degree): 46.2 ± 0.4 degree
[1]; 100 μg/kg body weight i.p. once a day, 8-Weeks
  endurable-slant-slope-angle (degree): 47.6 ± 0.4 degree
[1]; 100 μg/kg body weight i.p. once a day, 9-Weeks
  endurable-slant-slope-angle (degree): 46.8 ± 0.3 degree
[1]; 100 μg/kg body weight i.p. once a day, 10-Weeks
  endurable-slant-slope-angle (degree): 51.6 ± 0.6 degree
[1]; 500 μg/kg body weight i.p. once a day, 4-Weeks
  endurable-slant-slope-angle (degree): 43.8 ± 0.4 degree
[1]; 500 μg/kg body weight i.p. once a day, 5-Weeks
  endurable-slant-slope-angle (degree): 46.4 ± 0.2 degree
[1]; 500 μg/kg body weight i.p. once a day, 6-Weeks
  endurable-slant-slope-angle (degree): 44.0 ± 0.6 degree
[1]; 500 μg/kg body weight i.p. once a day, 7-Weeks
  endurable-slant-slope-angle (degree): 44.6 ± 0.5 degree
[1]; 500 μg/kg body weight i.p. once a day, 8-Weeks
  endurable-slant-slope-angle (degree): 48.0 ± 0.5 degree
[1]; 500 μg/kg body weight i.p. once a day, 9-Weeks
  endurable-slant-slope-angle (degree): 47.5 ± 0.4 degree
[1]; 500 μg/kg body weight i.p. once a day, 10-Weeks
  endurable-slant-slope-angle (degree): 51.8 ± 0.4 degree
[1]; hamster with cerebellar ataxia, agent of Example 1, 0.5 ml/hamster intraperitoneally once a day for 56 days
  Endurable-slant-slope-angle (°): 55.8 ± 2.5 °
[2]; final concentration 50 ng/ml
  Cell survival percentage (%): 154 ± 8%
[2]; final concentration 200 ng/ml
  Cell survival percentage (%): 309 ± 68%
[2]; final concentration 800 ng/ml
  Cell survival percentage (%): 254 ± 54%
[2]; no compound = 100%, final concentration 12.5 ng/ml
  Cell survival percentage (%): 134 ± 8%
[2]; compound concentration 25 ng/ml
  Action of enhancing cell growth (%): 149 ± 20%
[2]; compound concentration 50 ng/ml
  Action of enhancing cell growth (%): 181 ± 79%
[2]; compound concentration 100 ng/ml
  Action of enhancing cell growth (%): 301 ± 65%
[2]; compound concentration 200 ng/ml
  Action of enhancing cell growth (%): 438 ± 48%
[2]; from Table 9
  optimum concentration for exhibiting cell-growth-promoting action: 200 ng/mL
[3]; 50 μl of 400 ng/ml test sample solution per well + NGF final 5 ng/ml, 3 days
  Evaluation B: Neurite-outgrowth action: ∘ (The test sample with a neurite outgrowth rate of 30% or higher was judged to be equivalent or more (∘) compared with NK-4)
[3]; compound concentration 80 ng/ml
  Action on neurite outgrowth (%): 25 ± 9%
[3]; compound concentration 400 ng/ml
  Action on neurite outgrowth (%): 35 ± 9%
[3]; compound concentration 2000 ng/ml
  Action on neurite outgrowth (%): 52 ± 4%
[3]; compound concentration 10000 ng/ml
  Action on neurite outgrowth (%): 14 ± 6%
[3]; final concentration of compound 200 ng/ml
  Rate of cells exhibiting neurite outgrowth (%): 22 ± 8%
[3]; final concentration of compound 400 ng/ml
  Rate of cells exhibiting neurite outgrowth (%): 31 ± 14%
[3]; final concentration of compound 800 ng/ml
  Rate of cells exhibiting neurite outgrowth (%): 51 ± 3%
[3]; final concentration of compound 1600 ng/ml
  Rate of cells exhibiting neurite outgrowth (%): 49 ± 8%
[4]
  suppressing amyloid β fragment disorder: actions of suppressing
